The results in this text go back to EP4578855A1, “PROLYL HYDROXYLASE INHIBITOR AND USE THEREOF” (Suzhong Pharmaceutical Group Co., Ltd., priority 2022, dated 2024).

Values joined by “and” are separate entries in the source; they are usually repeats but may differ in a detail not shown here. Equal values may be shown once.

The nature of series [1]: Pharmacokinetic evaluation after intravenous injection or intragastric administration, plasma LC-MS/MS. It counts as in vivo, SD rats. An excerpt:
After the compounds were given to SD rats by intravenous injection or intragastric administration, concentrations of related compounds in plasma were detected by an LC-MS/MS method, and pharmacokinetics and absolute bioavailability of the compounds prepared in Embodiments 13 and 14 in the rats were preliminarily evaluated.
2. Line: Sprague Dawley rats, sex: male, weight: 200 g to 250 g
Pharmacokinetic characteristics of rodents after intravenous injection and oral administration of the compounds were tested by a standard scheme. In the experiment, a candidate compound was prepared into a clear solution, and given to the rats by single intravenous injection and intragastric administration. A solvent for intravenous injection was a certain proportion of N,N-dimethylacetamide (DMA) and 10% Solutol HS15 solution, and a solvent for oral administration was a certain proportion of sodium carboxymethyl cellulose (CMC) suspension. 5 minutes, 15 minutes, 30 minutes, 1 hour, 2 hours, 4 hours, 6 hours, 8 hours, 10 hours and 24 hours after drug administration, blood samples of the animals were respectively collected into K2EDTA anticoagulation tubes, which were temporarily stored on ice until centrifugation.

Series [2] relates to human hepatocarcinoma cell line Hep3B. The series can be described thus: In-vitro erythropoietin (EPO)-inducing activity experiment (EPO ELISA, OD450). It counts as cell-based. The conditions noted are these: Homo sapiens, Hep3B, 24 h, Hep3B cells, incubated 24 hours at 37°C. The protocol: In-vitro erythropoietin (EPO)-inducing activities of the compounds in Embodiments 10 to 12 were evaluated by using a human hepatocarcinoma cell line Hep3B (ATCC). Hep3B cells were cultured in an EMEM medium (Eagle's Minimum Essential Medium) at 37°C in the presence of 10% fetal bovine serum (FBS). Experimental steps were as follows: • (1) Cell preparation: the cells were inoculated in a 96-well plate, and cell plating was carried out according to an amount of 100 µL per well based on 2*10~4 per well. • (2) Preparation of compound concentration gradient: 100 µM, 20 µM, 2-parallel well detection. A solution with 200 times final concentration was prepared in a 96-well plate, the compound was diluted 200/3 times by using a cell culture medium, and then 50 µL of the compound was sucked for drug administration to the cells. 50 µL of DMSO-containing culture solution was added into a negative control well to make a final concentration contain 5 ‰ DMSO, and 50 µL of positive compound with the highest concentration was added into a positive control well to incubate the cells at 37°C for 24 hours. • (3) The reaction plate was washed twice with 1X Wash Buffer according to about 400 µL per well. • (4) 100 µL of diluted standard (comprising a standard blank control) was added into an appropriate well. • (5) 50 µL of sample and 50 µL of Sample Diluent were added into a sample well. • (6) 50 µL of 1X Biotin Conjugated Antibody were added into all wells to incubate the cells at room temperature for 1 hour. • (7) The reaction plate was washed with 1X Wash Buffer for 6 times according to about 400 µL per well. • (8) 100 µL of 1X Streptavidin-HRP was added in to each well to incubate the cells at room temperature for 15 minutes. • (9) The reaction plate was washed with 1X Wash Buffer for 6 times according to about 400 µL per well. • (10) 100 µL of TMB Substrate Solution was added into each well to incubate the cells at room temperature for 10 minutes. • (11) 100 µL of Stop Solution was added into each well. • (12) OD450 was read by EnSight.
The EPO-inducing activities of the compounds were expressed as the concentration for 50% of maximal effect (EC50).
(In an ELISA, binding on a coated surface is turned into a signal by an enzyme label.)

The subject of another series is EPO (erythropoietin). The experiment in a line: Pharmacological evaluation: influence of continuous administration on EPO level. It counts as in vivo, SD rats. The protocol:
This experiment was intended to evaluate an influence of continuous administration of the compounds prepared in Embodiments 12, 13 and 14 on EPO (erythropoietin) in SD rats.
• Line: SD (Sprague Dawley) • Weeks of age and weight: 8 weeks, weight 200 g to 220 g • Sex: male • Animal source: Beijing Vital River Laboratory Animal Technology Co., Ltd.
• Positive drug: Enarodustat • Description: commercialized drugs approved for marketing in Japan • Specification and content: 2 mg JTZ-951(Enarodustat), 140 capsules/box
After a week of adaptive feeding, SD rats were randomly divided into 3 groups, 6 rats in each group, which were namely a blank group, a positive drug group (Enarodustat) and a group of compound in Embodiment 12. An Enarodustat tablet was crushed by a mortar, then quantitatively added with 0.5% methyl cellulose, and magnetically stirred and mixed evenly; and the compound prepared in Embodiment 12 was weighed, then quantitatively added with 0.5% methyl cellulose, and magnetically stirred and mixed evenly. […] The drug was given once a day for 14 consecutive days, and blood was taken to measure an EPO level 4 hours after the drug was given on the 14th day.

Where [3] appears, read: SD rats, in words, compared with Enarodustat in the table.

For orientation: bioavailability means dose-corrected exposure relative to a reference, in per cent. In general, EC50 refers to the concentration that produces a half-maximal response. `O=C(O)CNC(=O)c1c(O)cc(C2CCc3ccccc3C2)n2ncnc12` (single isomer, unassigned) [Compound in Embodiment 13, [(7-hydroxy-5-(1,2,3,4-tetrahydronaphthalene-2-yl)-[1,2,4]triazolo[1,5-a]pyridine-8-carbonyl)amino]acetic acid]: in series [1] (setting [3]), the half-lives entry was “obviously longer” and the in-vivo exposure entry is given as “higher”. In series [1] (male, Sprague-Dawley, rat, plasma, male SD rats, route and dose not given, read-out: Concentration integral AUC), the AUC came out at 19100 ng·h/mL. In addition, the half-life in series [1] (male, Sprague-Dawley, rat, plasma, male SD rats, route and dose not given, read-out: Half-life period T1/2 (converted)) was 2.02 h. In series [1] (male, Sprague-Dawley, rat, plasma, oral, male SD rats, intragastric vs intravenous, read-out: Bioavailability F), the bioavailability amounted to 29.4%. The compound also registered an EC50 in series [2] of 5.05 µM. In addition, the “EPO levels in serum of the rats” value in the series with EPO (erythropoietin) (after 14 days of administration, in words) is reported as “increased significantly”. Further, the “EPO levels in plasma of the rats” value in the series on EPO (erythropoietin) (after administration, compared with the group of positive drug Enarodustat, in words) is given as “significantly higher”. Moreover, the “EPO level after 14 days of administration” value in the series on EPO (erythropoietin) (individual rats 1-6, 0.3 mg/mL, 10 mL/kg, once a day for 14 consecutive days, blood 4 hours after the drug on the 14th day, 2904.6 pg/mL was an upper limit of measurement) was ≥ 2904.6 pg/mL (3×) and 2697.4 pg/mL and 2658.5 pg/mL and 2772.1 pg/mL. In addition, the “EPO level after 14 days of administration, Mean” value in the series with EPO (erythropoietin) (mean of 6 rats, 0.3 mg/mL, 10 mL/kg, once a day for 14 consecutive days, blood 4 hours after the drug on the 14th day, 2904.6 pg/mL was an upper limit of measurement) is 2807.0 pg/mL.
